According to patent US12018023B2 (NERVIANO MEDICAL SCIENCES S.R.L., priority 2018, dated 2024):

Columns and labels:
[1] = target: T1, IDH1^R132H homodimer enzyme (Homo sapiens, UniProt O75874, R132H); assay: NADPH depletion assay, IDH1 R132H; type: biochemical
T1 construct: purchased not specified
Method: (§1) IDH mutated enzyme activity converting alpha-ketoglutarate to 2-hydroxyglutaric acid is measured using a NADPH depletion assay. In the assay the remaining cofactor is measured at the end of the reaction with the addition of a catalytic excess of diaphorase and resazurin, to generate a fluorescent signal in proportion to the amount of NADPH remaining. IDH1 WT enzyme as well as mutated isoforms IDH1^R132H, IDH1^R132C, and IDH^2R172K enzymes are commercially available proteins (see e.g. Sino Biological, Abcam, Active Motif or Creative BioMart).
(§2) IDH1^R132H homodimer enzyme are diluted to 8 nM, in 10 μL of Assay Buffer (150 mM NaCl, 50 mM Tris-HCl pH 7.6, 10 mM MgCl2, 0.001% Triton X-100, 4 mM β-mercaptoethanol); 0.2 uL of test compound, previously serially diluted 1 to 3, >10 experimental points from 1 mM in DMSO, is added and the mixture is incubated for 15 minutes at room temperature. The reaction is started with the addition of 10 μL of Substrate Mix (12 uM NADPH, 3.4 mM alpha-ketoglutarate in Assay Buffer) and the mixture is incubated for 60 minutes at room temperature. The reaction is terminated with the addition of 5 μl of Detection Buffer (100 μg/mL diaphorase, 30 μM resazurin, in IX Assay Buffer), and is incubated for 15 minute before reading on a ViewLux as platereader at Ex544/Em590.

IDH1^R132C = target: T2, IDH1^R132C (Homo sapiens, UniProt O75874, R132C); assay: NADPH depletion assay, IDH1 R132C; type: biochemical
T2 construct: purchased not specified
Method: as §1, §2
Compounds are assayed for their activity against IDH1^R132C following the same assay as above with the following modifications: IDH1^R132C and alpha-ketoglutarate final concentrations in the Assay Buffer is 2 nM and 0.14 mM, respectively.

T1 sequence (O75874 whole entry R132H): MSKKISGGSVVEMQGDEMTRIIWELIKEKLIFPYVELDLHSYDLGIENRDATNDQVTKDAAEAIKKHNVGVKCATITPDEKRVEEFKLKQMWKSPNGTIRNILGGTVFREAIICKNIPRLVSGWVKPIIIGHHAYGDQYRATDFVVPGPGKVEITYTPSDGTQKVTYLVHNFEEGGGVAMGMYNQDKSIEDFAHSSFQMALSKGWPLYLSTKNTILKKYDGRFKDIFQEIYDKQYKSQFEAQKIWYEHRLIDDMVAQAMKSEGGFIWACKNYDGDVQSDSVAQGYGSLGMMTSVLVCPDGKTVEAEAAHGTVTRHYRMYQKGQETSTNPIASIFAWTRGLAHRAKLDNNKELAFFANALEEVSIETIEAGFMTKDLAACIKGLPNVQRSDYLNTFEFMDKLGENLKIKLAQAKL
T2 sequence (O75874 whole entry R132C): as the sequence (O75874 whole entry R132H) above, with H132C counted along it

Structure (SMILES) | IC50 [1] | IC50 (IDH1^R132C)
CCCn1c(=O)ccc2cnc(N[C@@H](C)c3ccc(CN4CCN(C(C)=O)CC4)cc3)nc21 [cpd 103, 2-{[(1S)-1-{4-[(4-acetylpiperazin-1-yl)methyl]phenyl}ethyl]amino}-8-propylpyrido[2,3-d]pyrimidin-7(8H)-one] | 1590 nM | 634 nM
C=CC(=O)N1CCN(Cc2ccc([C@H](C)Nc3nc(OCC)c4ccc(=O)n(CC(C)(C)C)c4n3)cc2)CC1 [cpd 201, 2-{[(1S)-1-{4-[(4-acryloylpiperazin-1-yl)methyl]phenyl}ethyl]amino}-8-(2,2-dimethylpropyl)-4-ethoxypyrido[2,3-d]pyrimidin-7(8H)-one] | 420 nM | 173 nM
CC(C)[C@H](C)n1c(=O)ccc2cnc(N[C@@H](C)c3ccc(-c4ccnc(C(F)(F)F)c4)cn3)nc21 [cpd 196, 8-[(2S)-3-methylbutan-2-yl]-2-({(1S)-1-[2′-(trifluoromethyl)-3,4′-bipyridin-6-yl]ethyl}amino)pyrido[2,3-d]pyrimidin-7(8H)-one] | 955 nM | 141 nM
C[C@H](Nc1ncc2ccc(=O)n(CC(C)(C)C)c2n1)c1ccc(CN2CC(F)(F)C2)cc1 [cpd 147, 2-{[(1S)-1-{4-[(3,3-difluoroazetidin-1-yl)methyl]phenyl}ethyl]amino}-8-(2,2-dimethylpropyl)pyrido[2,3-d]pyrimidin-7(8H)-one] | 473 nM | 173 nM
C[C@H](Nc1ncc2ccc(=O)n(CC(C)(C)C)c2n1)c1ccc(C(=O)NC2CCC(F)(F)CC2)cc1 [cpd 79, N-(4,4-difluorocyclohexyl)-4-[(1S)-1-{[8-(2,2-dimethylpropyl)-7-oxo-pyrido[2,3-d]pyrimidin-2-yl]amino}ethyl]benzamide] | 529 nM | 357 nM
CC(Nc1ncc2ccc(=O)n(CC(C)(C)C)c2n1)C12CC3CC(CC(C3)C1)C2 (stereo not drawn) [cpd 44, 8-(2,2-dimethylpropyl)-2-{[1-(tricyclo[3.3.1.1^3,7]dec-1-yl)ethyl]amino}pyrido[2,3-d]pyrimidin-7(8H)-one] | 1090 nM | 811 nM
C[C@H](Nc1ncc2ccc(=O)n(Cc3ccc(F)cc3F)c2n1)c1ccc(Cl)cc1 [cpd 25, 2-{[(1S)-1-(4-chlorophenyl)ethyl]amino}-8-(2,4-difluorobenzyl)pyrido[2,3-d]pyrimidin-7(8H)-one] | 1940 nM | 524 nM
CC(C)(C)Cn1c(=O)ccc2cnc(NC(C)(C)c3ccccc3)nc21 [cpd 41, 8-(2,2-dimethylpropyl)-2-[(2-phenylpropan-2-yl)amino]pyrido[2,3-d]pyrimidin-7(8H)-one] | 2460 nM | 1410 nM
C[C@H](Nc1ncc2ccc(=O)n(CC(C)(C)C(=O)O)c2n1)c1ccc2ccccc2c1 [cpd 121, 2,2-dimethyl-3-[2-{[(1S)-1-(naphthalen-2-yl)ethyl]amino}-7-oxopyrido[2,3-d]pyrimidin-8(7H)-yl]propanoic acid] | 3900 nM | 1630 nM
C[C@H](Nc1ncc2ccc(=O)n(CC(C)(C)C)c2n1)c1nc(-c2ccc(Cl)cc2)no1 [cpd 52, 2-({(1S)-1-[3-(4-chlorophenyl)-1,2,4-oxadiazol-5-yl]ethyl}amino)-8-(2,2-dimethylpropyl)pyrido[2,3-d]pyrimidin-7(8H)-one] | 1760 nM | 786 nM
CCCn1c(=O)ccc2cnc(N[C@@H](C)c3ccc(CN4CCCCCC4)cc3)nc21 [cpd 102, 2-({(1S)-1-[4-(azepan-1-ylmethyl)phenyl]ethyl}amino)-8-propylpyrido[2,3-d]pyrimidin-7(8H)-one] | 4320 nM | 2800 nM
C[C@H](Nc1ncc2ccc(=O)n(CC(C)(C)C)c2n1)c1ccc(S(C)(=O)=O)cc1 [cpd 137, 8-(2,2-dimethylpropyl)-2-({(1S)-1-[4-(methylsulfonyl)phenyl]ethyl}amino)pyrido[2,3-d]pyrimidin-7(8H)-one] | 3470 nM | 1300 nM
CC(C)[C@H](C)n1c(=O)ccc2cnc(N[C@@H](C)c3ccc(N4CCOCC4)cc3)nc21 [cpd 173, 8-[(2S)-3-methylbutan-2-yl]-2-({(1S)-1-[4-(morpholin-4-yl)phenyl]ethyl}amino)pyrido[2,3-d]pyrimidin-7(8H)-one] | 575 nM | 144 nM
COC(=O)c1ccc([C@H](C)Nc2ncc3ccc(=O)n(Cc4cc(F)cc(F)c4)c3n2)cc1 [cpd 7, methyl 4-[(1S)-1-{[8-(3,5-difluorobenzyl)-7-oxo-pyrido[2,3-d]pyrimidin-2-yl]amino}ethyl]benzoate] | 2960 nM | 1410 nM
Cc1nc(N[C@@H](C)c2ccc(CN3CCC(F)(F)CC3)cc2)nc2c1ccc(=O)n2CC(C)C [cpd 118] | 1300 nM | 923 nM
COC(=O)c1ccc([C@H](C)Nc2ncc3ccc(=O)n(CC4(C)COC4)c3n2)cc1 [cpd 10, methyl 4-[(1S)-1-({8-[(3-methyloxetan-3-yl)methyl]-7-oxo-pyrido[2,3-d]pyrimidin-2-yl}amino)ethyl]benzoate] | 3850 nM | 1920 nM

Compounds with a lower IC50 [1], results first:

IC50 [1] | IC50 (IDH1^R132C) | Structure (SMILES)
290 nM | 123 nM | CCOC(=O)C(C)n1c(=O)ccc2cnc(N[C@@H](C)c3ccc(CN4CCCC(F)(F)C4)cc3)nc21 (stereo partly drawn) [cpd 63, ethyl 2-[2-{[(1S)-1-{4-[(3,3-difluoropiperidin-1-yl)methyl]phenyl}ethyl]amino}-7-oxopyrido[2,3-d]pyrimidin-8(7H)-yl]propanoate]
284 nM | 170 nM | C[C@H](Nc1ncc2ccc(=O)n(CC(C)(C)C)c2n1)c1ccc(-c2ccncc2)cc1 [cpd 131, 8-(2,2-dimethylpropyl)-2-({(1S)-1-[4-(pyridin-4-yl)phenyl]ethyl}amino)pyrido[2,3-d]pyrimidin-7(8H)-one]
226 nM | 41 nM | C[C@H](Nc1ncc2ccc(=O)n(CC(C)(C)C)c2n1)c1ccc(CN2CCOCC2)cc1F [cpd 153, 8-(2,2-dimethylpropyl)-2-({(1S)-1-[2-fluoro-4-(morpholin-4-ylmethyl)phenyl]ethyl}amino)pyrido[2,3-d]-pyrimidin-7(8H)-one]
190 nM | 150 nM | CC(Nc1ncc2ccc(=O)n(CC(C)(C)C)c2n1)c1ccc(C(=O)NC2CCC(F)(F)CC2)c(F)c1 (stereo not drawn) [cpd 84, N-(4,4-difluorocyclohexyl)-4-(1-{[8-(2,2-dimethylpropyl)-7-oxo-pyrido[2,3-d]pyrimidin-2-yl]amino}ethyl)-2-fluorobenzamide]
169 nM | 55 nM | C[C@@H]1CN(Cc2ccc([C@H](C)Nc3ncc4ccc(=O)n([C@@H](C)C5CC5)c4n3)cc2F)C[C@H](C)O1 [cpd 171, 8-[(1S)-1-cyclopropylethyl]-2-{[(1S)-1-(4-{[(2R,6S)-2,6-dimethylmorpholin-4-yl]methyl}-3-fluorophenyl)ethyl]amino}pyrido[2,3-d]pyrimidin-7(8H)-one]
162 nM | 51 nM | CC(C)C(=O)N1CCN(Cc2ccc([C@H](C)Nc3ncc4ccc(=O)n(CC(C)(C)C)c4n3)cc2)CC1 [cpd 157, 8-(2,2-dimethylpropyl)-2-{[(1S)-1-(4-{[4-(2-methylpropanoyl)piperazin-1-yl]methyl}phenyl)ethyl]amino}-pyrido [2,3-d]pyrimidin-7(8H)-one]
138 nM | 97 nM | C[C@H](Nc1ncc2ccc(=O)n(CC(C)(C)C)c2n1)c1ccc(C(=O)NC2CCC(F)(F)CC2)c(Cl)c1 [cpd 88, 2-chloro-N-(4,4-difluorocyclohexyl)-4-[(1S)-1-{[8-(2,2-dimethylpropyl)-7-oxo-7,8-dihydropyrido[2,3-d]pyrimidin-2-yl]amino}ethyl]benzamide]
137 nM | 65 nM | C[C@H](Nc1ncc2ccc(=O)n(CC(C)(C)CO)c2n1)c1ccc(CN2CCC(F)(F)CC2)cc1 [cpd 55, 2-{(S)-1-[4-(4,4-Difluoro-piperidin-1-ylmethyl)-phenyl]-ethylamino}-8-(3-hydroxy-2,2-dimethyl-propyl)-8H-pyrido[2,3-d]pyrimidin-7-one]
126 nM | 89 nM | CC(C)[C@H](C)n1c(=O)ccc2cnc(N[C@@H](C)c3ccc(C4=CCN(C(=O)OC(C)(C)C)CC4)cn3)nc21 [cpd 193, tert-butyl 6-[(1S)-1-({8-[(2S)-3-methylbutan-2-yl]-7-oxo-7,8-dihydropyrido[2,3-d]pyrimidin-2-yl}amino)ethyl]-3′,6′-dihydro-3,4′-bipyridine-1′(2′H)-carboxylate]
68 nM | 31 nM | CC(C)C(=O)N1CCC(Oc2ccc([C@H](C)Nc3ncc4ccc(=O)n([C@@H](C)C(C)C)c4n3)cc2)CC1 [cpd 160, 8-((S)-1,2-Dimethyl-propyl)-2-{(S)-1-[4-(1-isobutyryl-piperidin-4-yloxy)-phenyl]-ethylamino}-8H-pyrido[2,3-d]pyrimidin-7-one]
42 nM | 32 nM | CC(C)[C@H](C)n1c(=O)ccc2cnc(N[C@@H](C)c3ccc(N4CCN(C(=O)OCc5ccccc5)CC4)cc3)nc21 [cpd 174, Benzyl-4-{4-[(1S)-1-({8-[(2S)-3-methylbutan-2-yl]-7-oxo-7,8-dihydropyrido[2,3-d]pyrimidin-2-yl}amino)ethyl]phenyl}piperazine-1-carboxylate]
